In patent US20160084855A1, “Compositions and Methods for Modulation and Detection of Immune and Inflammatory Responses” (UNIVERSITY OF CONNECTICUT, priority 2013, published 2016):

Tests used:
[1] = tested on: C57BL/6 (WT), TLR2−/−, IL-15−/− and IL-15Rα−/− mice with EAE; assay: EAE induced with MOG35-55 in CFA plus pertussis toxin; clinical grading; assay type: in vivo, mouse; conditions: for Mean Day of Onset of EAE / Mean Maximum Severity of EAE / Mean Incidence of disease: PE DHC; for Mean Maximum Severity of EAE: 20-day observation; for MDD (Mean Daily Disease) / CDI (cumulative disease index): PE DHC 250 ng single i.p. Day 0; for MDD (Mean Daily Disease): 20 days; for CDI (cumulative disease index): through Day 20
Procedure: […]. In addition, mice were injected intraperitoneally (i.p.) on Day 0 with either P. gingivalis lipid or the vehicle control, 70% ethanol (EtOH). EAE was scored as: Grade 1-tail paralysis; Grade 2-weakness of hind limbs with an altered gait; Grade 3-hind limb paralysis; Grade 4-front limb paralysis; Grade 5-death.
For treatment of mice, preweighed lipids were dissolved in 70% ethanol to achieve a final concentration of 125 ng/μl, and sonicated for 2.5 minutes immediately before injection into experimental animals. This preparation was also used for drying lipids onto tissue culture wells. For direct addition to cell cultures, the lipids were dissolved in culture medium at 125 ng/μl and sonicated for 2.5 minutes to produce a liposome preparation for administration to cells in culture.
The cumulative disease index (CDI) was obtained by summing the daily average disease scores through Day 20. A mean of these daily disease scores (Mean Daily Disease) (+/−SEM) was calculated based on the 20 days of observation. The Mean Daily Disease scores were compared using the Wilcoxin Signed Rank tests for two samples. Disease incidence frequencies were compared using Chi square analysis. Values for mean maximum severity of EAE were compared using the Wilcoxin Signed Rank test. Values for mean day of onset of EAE were compared using the Student's t-test. For analysis of spinal cord populations, percentages were compared using Student's t test. Bacterial fatty acid levels in brain lipid extracts for each treatment group were evaluated using least squares linear regression analysis that included calculation of correlation coefficients. For each dose of bacterial lipid administered, linear regression analysis compared the final EAE score with the mean bacterial fatty acid recovered per 0.5 mg of brain lipid extract. The mean bacterial fatty acid levels were calculated from three replicate brain lipid determinations.
EAE was induced in female C57BL/6 (WT) mice and these mice were also injected i.p. on Day 0 with either P. gingivalis lipids or the vehicle control, 70% ethanol (EtOH). To most effectively detect effects of P. gingivalis lipids in the development of autoimmunity, less severe EAE was induced by using CFA with […] concentrations of H37RA mycobacteria (500 μg/mouse). […] Component HPLC fractions of the TL were examined individually. […] FIG. 7 illustrates one representative experiment of six similar studies, in which 250 ng of PE DHC was administered to WT mice.
Mice deficient in either IL-15 (IL-15^−/− mice) or the IL-15 receptor α (IL-15Rα^−/− mice) are known to express very few identifiable NKT cells (Kennedy et al. “Reversible defects in natural killer and memory CD8 T cell lineages in interleukin 15-deficient mice,” J. Exp. Med. 191:771-780 (2000); Lodolce et al. “IL-15 receptor maintains lymphoid homeostasis by supporting lymphocyte homing and proliferation” Immunity 9:669-676 (1998). WT mice and either IL-15^−/− or IL-15Rα^−/− mice (both on a C57BL/6 background) were immunized for EAE and given a single i.p. injection of EtOH or PE DHC on Day 0. […] FIGS. 8 and 9 show representative experiments using IL-15^−/− and IL-15Rα^−/− mice.
TLR-2 deficient (TLR2^−/−) mice were immunized with the standard EAE-inducing MOG protocol and administered a single i.p. injection of either EtOH or PE DHC on Day 0.

[2] = tested on: naïve CD4+CD25− T cells with T cell-depleted splenocytes (Tds); assay: In vitro generation of Th17 T cells; assay type: cell-based, mouse; conditions: PE DHC 20 μg/ml sonicated liposomes; WT or TLR2−/− Tds; anti-CD3, GM-CSF, TGF-β; 5 days
Procedure: CD4+CD25− T cells (Teff) were derived from WT mice using magnetic bead purification (Miltenyi Biotec, Auburn, Calif.). T cell-depleted splenocytes (Tds) were derived from WT or TLR2^−/− mice using magnetic bead purification followed by irradiation (2600R). Teff (0.25×10^6/well) and Tds (0.75×10^6/well) were cultured in 24-well plates with anti-CD3 antibody (1 μg/ml), GM-CSF (20 ng/ml) (Pierce Inc., Thermo Fisher Scientific, Rockford, Ill.) and recombinant TGF-β (2 ng/ml) (R&D). In addition, LPS (2 μg/ml), MMP (5 μg/ml) or P. gingivalis PE DHC (20 μg/ml of sonicated liposome preparations) were added to wells to stimulate the secretion of IL-6. Cultures were harvested after 5 days, stimulated in culture for 4 hrs with phorbol myristyl acetate and ionomycin and stained for Thy1.2, intracellular IFNγ, and IL-17 and analyzed by FACS after gating on Thy 1.2+ cells.
PE DHC's ability to induce IL-6 secretion was characterized by testing its ability to induce Th17 T cell generation from cultures of naïve CD4+ CD25-T cells activated in the presence of APCs (T cell depleted splenocytes; Tds) and TGF-β. See Bettelli et al. “T(H)-17 cells in the circle of immunity and autoimmunity” Nat. Immunol. 2007, 8:345-350.

[3] = IL-15Rα−/− mice that developed EAE
[4] = IL-15−/− mice that developed EAE
[5] = TLR2−/− mice that developed EAE
[6] = Wild Type mice that developed EAE

phosphoethanolamine dihydroceramide [PE DHC]
Mean Day of Onset of EAE [1, 3]: 13.8 days | Mean Maximum Severity of EAE [1, 3]: 2.9 | Mean Incidence of disease ([1]; IL-15Rα−/− mice): 100% | MDD (Mean Daily Disease) ([1]; IL-15Rα−/− mice): 0.9 | CDI (cumulative disease index) ([1]; IL-15Rα−/− mice): 18.7 | CDI and mean daily disease compared with EtOH-treated mice ([1]; IL-15−/− and IL-15Rα−/− mice): greater than a doubling | Effect on EAE ([1]; IL-15−/− and IL-15Rα−/− mice, single i.p. injection Day 0): significantly enhanced EAE | Mean Day of Onset of EAE [1, 4]: 13.0 days | Mean Maximum Severity of EAE [1, 4]: 3.7 | Mean Incidence of disease ([1]; IL-15−/− mice): 90% | MDD (Mean Daily Disease) ([1]; IL-15−/− mice): 1.2 | CDI (cumulative disease index) ([1]; IL-15−/− mice): 24.5 | Mean Day of Onset of EAE [1, 5]: 14.7 days | Mean Maximum Severity of EAE [1, 5]: 2.9 | Mean Incidence of disease ([1]; TLR2−/− mice): 46.6% | MDD (Mean Daily Disease) ([1]; TLR2−/− mice): 0.4 | CDI (cumulative disease index) ([1]; TLR2−/− mice): 8.3 | Effect on CDI and mean daily disease ([1]; TLR2−/− mice, single i.p. injection Day 0): did not mediate enhancement of CDI or mean daily disease | CDI and mean daily disease compared with EtOH-treated mice ([1]; WT mice, 250 ng, cumulative results of six experiments): essentially a doubling | Effect on EAE disease ([1]; WT mice, 2.5 μg, 250 ng and 25 ng, 250 ng most efficient): led to enhanced disease | Onset of disease compared to EtOH-treated mice ([1]; WT mice, p=0.008): significantly earlier onset of disease | Effect on severity of EAE ([1]; WT mice, single 250 ng i.p. injection on Day 0): consistently enhanced the severity of EAE | Mean Day of Onset of EAE [1, 6]: 12.1 days | Mean Maximum Severity of EAE [1, 6]: 3.6 | Mean Incidence of disease ([1]; Wild Type mice): 75% | MDD (Mean Daily Disease) ([1]; Wild Type mice): 1.0 | CDI (cumulative disease index) ([1]; Wild Type mice): 19.8 | Generation of Th17 T cells [2]: resulted in the generation of Th17 T cells in cultures containing WT but not TLR2^−/− Tds
